ChEMBL document CHEMBL1909046, “DrugMatrix in vitro pharmacology data”

Tests used:
[1] = molecular target: 5-hydroxytryptamine receptor 1B (Rattus norvegicus, UniProt P28564); format: cell membranes, Wistar, Cerebral cortex, Membrane; also: in other assays of this panel Not Active means under 50% inhibition at 10 µM
[2] = DRUGMATRIX: Tumor Necrosis Factor (TNF), Non-Selective radioligand binding (ligand: [125I] TNF-alpha); format: cell membranes, Membrane; details: u-937; Not Active = under 50% inhibition at 10 µM
Cannabinoid receptor 1 = Cannabinoid receptor 1 (Homo sapiens, UniProt P21554); format: cell membranes, Membrane; details: chem-1; also: in other assays of this panel Not Active means under 50% inhibition at 10 µM
Cytochrome P450 3A4 = Cytochrome P450 3A4 (Homo sapiens, UniProt P08684); details: bti-tn-5b1-4; also: in other assays of this panel Not Active means under 50% inhibition at 10 µM
[3] = molecular target: T1, Type-2 angiotensin II receptor (Homo sapiens, UniProt P50052); format: cell-based; details: cho-k1; also: in other assays of this panel Not Active means under 50% inhibition at 10 µM
T1 sequence (P50052 whole entry): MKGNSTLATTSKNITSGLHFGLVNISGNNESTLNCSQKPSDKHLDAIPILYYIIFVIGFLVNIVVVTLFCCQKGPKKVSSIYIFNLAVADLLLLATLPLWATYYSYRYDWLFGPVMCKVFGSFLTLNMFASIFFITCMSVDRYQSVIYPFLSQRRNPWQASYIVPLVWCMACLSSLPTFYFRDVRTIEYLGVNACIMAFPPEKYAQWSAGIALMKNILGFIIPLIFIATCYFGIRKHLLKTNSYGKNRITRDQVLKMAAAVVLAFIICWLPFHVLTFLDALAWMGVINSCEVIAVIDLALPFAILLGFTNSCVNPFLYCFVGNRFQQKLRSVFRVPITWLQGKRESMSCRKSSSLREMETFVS

[4] = molecular target: Beta-1 adrenergic receptor (Homo sapiens, UniProt P08588); test: DRUGMATRIX: Adrenergic beta1 radioligand binding (ligand: [125I] Cyanopindolol); format: cell membranes, CHO-K1, Membrane; details: cho-k1; Not Active = under 50% inhibition at 10 µM
Calcitonin receptor = molecular target: T2, Calcitonin receptor (Homo sapiens, UniProt P30988); format: cell membranes, Membrane; details: t47d; also: in other assays of this panel Not Active means under 50% inhibition at 10 µM
T2 sequence (P30988 whole entry): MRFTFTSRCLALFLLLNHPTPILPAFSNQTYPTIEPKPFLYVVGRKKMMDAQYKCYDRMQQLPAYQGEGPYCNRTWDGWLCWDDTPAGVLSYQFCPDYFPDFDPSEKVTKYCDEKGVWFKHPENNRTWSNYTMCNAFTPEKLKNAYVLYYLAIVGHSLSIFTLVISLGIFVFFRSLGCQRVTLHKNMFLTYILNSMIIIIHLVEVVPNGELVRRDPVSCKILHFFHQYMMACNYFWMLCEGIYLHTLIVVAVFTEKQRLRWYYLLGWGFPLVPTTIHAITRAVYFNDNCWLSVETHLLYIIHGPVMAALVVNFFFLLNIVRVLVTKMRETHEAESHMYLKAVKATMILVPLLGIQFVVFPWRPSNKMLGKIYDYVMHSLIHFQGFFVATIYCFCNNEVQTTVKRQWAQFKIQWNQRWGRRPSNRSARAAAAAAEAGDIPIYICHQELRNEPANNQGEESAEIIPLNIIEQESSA

Vasopressin V1a receptor = Vasopressin V1a receptor (Homo sapiens, UniProt P37288); format: cell membranes, Membrane; details: hek293; also: in other assays of this panel Not Active means under 50% inhibition at 10 µM
Sequence of Vasopressin V1a receptor (P37288 whole entry): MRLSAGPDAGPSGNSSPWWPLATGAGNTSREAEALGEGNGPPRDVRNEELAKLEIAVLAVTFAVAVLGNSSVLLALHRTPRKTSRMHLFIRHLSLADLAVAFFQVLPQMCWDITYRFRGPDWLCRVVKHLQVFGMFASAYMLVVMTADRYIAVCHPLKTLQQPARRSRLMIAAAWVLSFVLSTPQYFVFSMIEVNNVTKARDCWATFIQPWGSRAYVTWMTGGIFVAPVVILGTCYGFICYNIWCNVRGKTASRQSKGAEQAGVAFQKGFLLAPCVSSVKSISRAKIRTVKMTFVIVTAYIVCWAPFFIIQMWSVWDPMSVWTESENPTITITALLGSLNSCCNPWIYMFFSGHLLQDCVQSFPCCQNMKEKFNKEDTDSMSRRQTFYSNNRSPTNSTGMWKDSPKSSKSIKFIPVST

Sequence of Cannabinoid receptor 1 (P21554 whole entry): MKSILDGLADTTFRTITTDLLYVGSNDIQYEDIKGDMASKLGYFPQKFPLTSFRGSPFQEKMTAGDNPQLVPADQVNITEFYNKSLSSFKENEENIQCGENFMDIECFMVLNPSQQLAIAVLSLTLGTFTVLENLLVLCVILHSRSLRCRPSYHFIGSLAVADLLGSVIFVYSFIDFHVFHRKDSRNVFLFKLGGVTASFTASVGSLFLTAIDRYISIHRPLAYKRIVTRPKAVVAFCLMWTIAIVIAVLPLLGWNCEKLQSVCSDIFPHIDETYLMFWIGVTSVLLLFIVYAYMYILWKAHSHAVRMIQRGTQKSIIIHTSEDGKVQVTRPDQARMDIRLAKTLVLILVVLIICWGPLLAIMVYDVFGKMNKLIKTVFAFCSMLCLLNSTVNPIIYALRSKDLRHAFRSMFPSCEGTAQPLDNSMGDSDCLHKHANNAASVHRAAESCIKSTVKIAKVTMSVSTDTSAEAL
Sequence of Beta-1 adrenergic receptor (P08588 whole entry): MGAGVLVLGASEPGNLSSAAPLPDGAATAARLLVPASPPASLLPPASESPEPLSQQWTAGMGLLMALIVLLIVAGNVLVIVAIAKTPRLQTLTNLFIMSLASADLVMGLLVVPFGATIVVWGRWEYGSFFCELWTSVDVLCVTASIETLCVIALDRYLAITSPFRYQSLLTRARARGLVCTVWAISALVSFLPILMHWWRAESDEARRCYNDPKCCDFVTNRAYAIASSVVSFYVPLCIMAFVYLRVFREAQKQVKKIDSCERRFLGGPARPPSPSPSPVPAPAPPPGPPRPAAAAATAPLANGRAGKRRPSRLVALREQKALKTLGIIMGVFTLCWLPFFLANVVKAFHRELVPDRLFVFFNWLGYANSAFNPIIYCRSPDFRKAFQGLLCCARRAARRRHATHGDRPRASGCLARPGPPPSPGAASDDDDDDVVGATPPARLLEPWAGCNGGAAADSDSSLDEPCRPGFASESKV
Sequence of 5-hydroxytryptamine receptor 1B (P28564 whole entry): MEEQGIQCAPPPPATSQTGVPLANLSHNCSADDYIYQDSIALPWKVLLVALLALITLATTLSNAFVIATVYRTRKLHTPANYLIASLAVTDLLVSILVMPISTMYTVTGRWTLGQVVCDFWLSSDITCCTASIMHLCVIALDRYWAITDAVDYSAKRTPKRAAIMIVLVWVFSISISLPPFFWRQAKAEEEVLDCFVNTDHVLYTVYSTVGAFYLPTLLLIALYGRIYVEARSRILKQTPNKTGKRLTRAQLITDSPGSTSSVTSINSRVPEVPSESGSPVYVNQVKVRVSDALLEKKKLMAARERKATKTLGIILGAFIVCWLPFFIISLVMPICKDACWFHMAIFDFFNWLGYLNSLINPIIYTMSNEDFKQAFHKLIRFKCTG
Sequence of Cytochrome P450 3A4 (P08684 whole entry): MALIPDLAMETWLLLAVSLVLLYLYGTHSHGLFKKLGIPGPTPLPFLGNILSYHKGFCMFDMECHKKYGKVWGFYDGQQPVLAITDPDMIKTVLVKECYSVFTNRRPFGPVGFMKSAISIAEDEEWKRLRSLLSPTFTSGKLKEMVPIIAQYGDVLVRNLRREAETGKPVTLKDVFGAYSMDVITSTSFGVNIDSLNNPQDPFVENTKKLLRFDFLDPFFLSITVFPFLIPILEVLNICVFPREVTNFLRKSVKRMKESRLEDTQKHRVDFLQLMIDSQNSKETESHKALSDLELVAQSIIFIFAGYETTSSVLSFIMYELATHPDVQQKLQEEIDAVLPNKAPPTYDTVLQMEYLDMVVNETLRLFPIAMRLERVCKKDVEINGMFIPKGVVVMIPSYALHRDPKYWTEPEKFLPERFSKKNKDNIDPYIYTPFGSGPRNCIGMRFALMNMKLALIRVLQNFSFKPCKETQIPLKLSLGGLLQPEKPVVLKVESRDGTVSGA

Cc1c(C)c2c(c(C)c1O)CC[C@@](C)(CCC[C@H](C)CCC[C@H](C)CCCC(C)C)O2 [ALPHA-TOCOPHEROL]
Not Active: IC50 [1] | IC50 [2] | Ki [2] | IC50 (Cannabinoid receptor 1) | IC50 (Cytochrome P450 3A4) | Ki (Cytochrome P450 3A4) | IC50 [3] | IC50 [4] | IC50 (Calcitonin receptor) | IC50 (Vasopressin V1a receptor)

NCCCCCC(=O)O [AMINOCAPROIC ACID]
Not Active: IC50 [1] | IC50 [2] | Ki [2] | IC50 (Cannabinoid receptor 1) | IC50 (Cytochrome P450 3A4) | Ki (Cytochrome P450 3A4) | IC50 [3] | IC50 [4] | IC50 (Calcitonin receptor) | IC50 (Vasopressin V1a receptor)

CCC1(c2ccc(N)cc2)CCC(=O)NC1=O (stereo unspecified) [AMINOGLUTETHIMIDE]
Not Active: IC50 [1] | IC50 [2] | Ki [2] | IC50 (Cannabinoid receptor 1) | IC50 (Cytochrome P450 3A4) | Ki (Cytochrome P450 3A4) | IC50 [3] | IC50 [4] | IC50 (Calcitonin receptor) | IC50 (Vasopressin V1a receptor)

Cc1ccc(/N=C/N(C)/C=N/c2ccc(C)cc2C)c(C)c1 [AMITRAZ]
Not Active: IC50 [1] | IC50 [2] | Ki [2] | IC50 (Cannabinoid receptor 1) | IC50 (Cytochrome P450 3A4) | Ki (Cytochrome P450 3A4) | IC50 [3] | IC50 [4] | IC50 (Calcitonin receptor) | IC50 (Vasopressin V1a receptor)

CCOC(=O)C1=C(COCCN)NC(C)=C(C(=O)OC)C1c1ccccc1Cl (stereo unspecified) [AMLODIPINE]
Not Active: IC50 [1] | IC50 [2] | Ki [2] | IC50 (Cannabinoid receptor 1) | IC50 (Cytochrome P450 3A4) | Ki (Cytochrome P450 3A4) | IC50 [3] | IC50 [4] | IC50 (Calcitonin receptor) | IC50 (Vasopressin V1a receptor)

COc1ccc(C[C@H]2NC[C@H](O)[C@H]2OC(C)=O)cc1 [ANISOMYCIN]
Not Active: IC50 [1] | Ki [1] | IC50 [2] | Ki [2] | IC50 (Cannabinoid receptor 1) | Ki (Cannabinoid receptor 1) | IC50 (Cytochrome P450 3A4) | Ki (Cytochrome P450 3A4) | IC50 [3] | Ki [3] | IC50 [4] | Ki [4] | IC50 (Calcitonin receptor) | Ki (Calcitonin receptor) | IC50 (Vasopressin V1a receptor) | Ki (Vasopressin V1a receptor)

Nc1ncn([C@@H]2O[C@H](CO)[C@@H](O)[C@H]2O)c(=O)n1 [AZACITIDINE]
Not Active: IC50 [1] | IC50 [2] | Ki [2] | IC50 (Cannabinoid receptor 1) | IC50 (Cytochrome P450 3A4) | Ki (Cytochrome P450 3A4) | IC50 [3] | IC50 [4] | IC50 (Calcitonin receptor) | IC50 (Vasopressin V1a receptor)

CN(C)C(=O)Oc1cc(OC(=O)N(C)C)cc(C(O)CNC(C)(C)C)c1 (stereo unspecified) [BAMBUTEROL]
Not Active: IC50 [1] | IC50 [2] | Ki [2] | IC50 (Cannabinoid receptor 1) | IC50 (Cytochrome P450 3A4) | Ki (Cytochrome P450 3A4) | IC50 [3] | IC50 [4] | IC50 (Calcitonin receptor) | IC50 (Vasopressin V1a receptor)

c1ccc2c(c1)c1cccc3ccc4cccc2c4c31 [BENZO[E]PYRENE]
Not Active: IC50 [1] | IC50 [2] | Ki [2] | IC50 (Cannabinoid receptor 1) | IC50 (Cytochrome P450 3A4) | Ki (Cytochrome P450 3A4) | IC50 [3] | IC50 [4] | IC50 (Calcitonin receptor) | IC50 (Vasopressin V1a receptor)

CC(C)C(Br)C(=O)NC(N)=O (stereo unspecified) [BROMISOVALUM]
Not Active: IC50 [1] | IC50 [2] | Ki [2] | IC50 (Cannabinoid receptor 1) | IC50 (Cytochrome P450 3A4) | Ki (Cytochrome P450 3A4) | IC50 [3] | IC50 [4] | IC50 (Calcitonin receptor) | IC50 (Vasopressin V1a receptor)

CCCC1O[C@@H]2C[C@H]3[C@@H]4CCC5=CC(=O)C=C[C@]5(C)[C@H]4[C@@H](O)C[C@]3(C)[C@]2(C(=O)CO)O1 (stereo partly specified) [BUDESONIDE]
Not Active: IC50 [1] | IC50 [2] | Ki [2] | IC50 (Cannabinoid receptor 1) | IC50 (Cytochrome P450 3A4) | Ki (Cytochrome P450 3A4) | IC50 [3] | IC50 [4] | IC50 (Calcitonin receptor) | IC50 (Vasopressin V1a receptor)

CC(NC(C)(C)C)C(=O)c1cccc(Cl)c1 (stereo unspecified) [BUPROPION]
Not Active: IC50 [1] | IC50 [2] | Ki [2] | IC50 (Cannabinoid receptor 1) | IC50 (Cytochrome P450 3A4) | Ki (Cytochrome P450 3A4) | IC50 [3] | IC50 [4] | IC50 (Calcitonin receptor) | IC50 (Vasopressin V1a receptor)

CN(Cc1ccc(C(C)(C)C)cc1)Cc1cccc2ccccc12 [BUTENAFINE]
Not Active: IC50 [1] | IC50 [2] | Ki [2] | IC50 (Cannabinoid receptor 1) | IC50 (Cytochrome P450 3A4) | Ki (Cytochrome P450 3A4) | IC50 [3] | IC50 [4] | IC50 (Calcitonin receptor) | IC50 (Vasopressin V1a receptor)

C[C@H](CS)C(=O)N1CCC[C@H]1C(=O)O [CAPTOPRIL]
Not Active: IC50 [1] | IC50 [2] | Ki [2] | IC50 (Cannabinoid receptor 1) | IC50 (Cytochrome P450 3A4) | Ki (Cytochrome P450 3A4) | IC50 [3] | IC50 [4] | IC50 (Calcitonin receptor) | IC50 (Vasopressin V1a receptor)

Cc1ccc(-c2cc(C(F)(F)F)nn2-c2ccc(S(N)(=O)=O)cc2)cc1 [CELECOXIB]
Not Active: IC50 [1] | IC50 [2] | Ki [2] | IC50 (Cannabinoid receptor 1) | IC50 (Cytochrome P450 3A4) | Ki (Cytochrome P450 3A4) | IC50 [3] | IC50 [4] | IC50 (Calcitonin receptor) | IC50 (Vasopressin V1a receptor)

O=C(O)CCCc1ccc(N(CCCl)CCCl)cc1 [CHLORAMBUCIL]
Not Active: IC50 [1] | IC50 [2] | Ki [2] | IC50 (Cannabinoid receptor 1) | IC50 (Cytochrome P450 3A4) | Ki (Cytochrome P450 3A4) | IC50 [3] | IC50 [4] | IC50 (Calcitonin receptor) | IC50 (Vasopressin V1a receptor)

C[C@H](CCC(=O)O)[C@H]1CC[C@H]2[C@@H]3[C@H](O)C[C@@H]4C[C@H](O)CC[C@]4(C)[C@H]3C[C@H](O)[C@]12C [CHOLIC ACID]
Not Active: IC50 [1] | IC50 [2] | Ki [2] | IC50 (Cannabinoid receptor 1) | IC50 (Cytochrome P450 3A4) | Ki (Cytochrome P450 3A4) | IC50 [3] | IC50 [4] | IC50 (Calcitonin receptor) | IC50 (Vasopressin V1a receptor)
